The text below walks through data of the supplement of paper PMC10307832.

Holding throughout (experiment): relative viability (nuclei count vs DMSO), 5 days (fraction); higher = more cells survive
Compound in the experiment “Pazopanib + Lapatinib”: Cc1ccc(Nc2nccc(N(C)c3ccc4c(C)n(C)nc4c3)n2)cc1S(N)(=O)=O [Pazopanib] + CS(=O)(=O)CCNCc1ccc(-c2ccc3ncnc(Nc4ccc(OCc5cccc(F)c5)c(Cl)c4)c3c2)o1 [Lapatinib] (partner 2 µM)
The gist of the method:
(§1)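 Five library-drug doses in √10 steps were combined with a fixed anchor-drug dose, or a single drug was given alone, by pin tool to lung cancer cell lines in 1536-well plates the day after seeding. Nuclei were stained and counted after 5 days. Relative viability is the nuclei count in treated wells over that in vehicle wells, taken as the median of duplicate plates.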

Compound in the experiment “Ponatinib + Decitabine”: Cc1ccc(C(=O)Nc2ccc(CN3CCN(C)CC3)c(C(F)(F)F)c2)cc1C#Cc1cnc2cccnn12 [Ponatinib] + Nc1ncn([C@H]2C[C@H](O)[C@@H](CO)O2)c(=O)n1 [Decitabine] (partner 2 µM)
Put shortly:
as §1

Compound in the experiment “Ponatinib + Alpelisib”: Cc1ccc(C(=O)Nc2ccc(CN3CCN(C)CC3)c(C(F)(F)F)c2)cc1C#Cc1cnc2cccnn12 [Ponatinib] + Cc1nc(NC(=O)N2CCC[C@H]2C(N)=O)sc1-c1ccnc(C(C)(C)C(F)(F)F)c1 [Alpelisib] (partner 2 µM)
Put shortly:
as §1

Compound in the experiment “Pazopanib + Alpelisib”: Cc1ccc(Nc2nccc(N(C)c3ccc4c(C)n(C)nc4c3)n2)cc1S(N)(=O)=O [Pazopanib] + Cc1nc(NC(=O)N2CCC[C@H]2C(N)=O)sc1-c1ccnc(C(C)(C)C(F)(F)F)c1 [Alpelisib] (partner 2 µM)
The gist of the method: as §1

As for NCI-H3122, the relative viability worked out at 1.09 with Pazopanib + Lapatinib (first compound 0.01 µM); 1.04 with Pazopanib + Lapatinib (first compound 0.03162 µM); 1.17 with Pazopanib + Lapatinib (first compound 0.1 µM); 1.01 in the experiment with Pazopanib + Lapatinib (first compound 0.3162 µM); 1.08 with Pazopanib + Lapatinib (first compound 1 µM); 0.457 with Ponatinib + Decitabine (first compound 0.002 µM). Moreover, the relative viability was determined as 0.545 in the experiment with Ponatinib + Decitabine (first compound 0.006325 µM); 0.472 with Ponatinib + Decitabine (first compound 0.06325 µM); 0.411 in the experiment with Ponatinib + Decitabine (first compound 0.2 µM); 0.883 with Ponatinib + Alpelisib (first compound 0.002 µM); 0.86 with Ponatinib + Alpelisib (first compound 0.006325 µM); 0.863 with Ponatinib + Alpelisib (first compound 0.06325 µM). Further, the relative viability with Ponatinib + Alpelisib (first compound 0.2 µM) stood at 0.909; with Pazopanib + Alpelisib (first compound 0.01 µM) it was 0.733; in the experiment with Pazopanib + Alpelisib (first compound 0.03162 µM), 0.734; in the experiment with Pazopanib + Alpelisib (first compound 0.1 µM) it was 0.783; in the experiment with Pazopanib + Alpelisib (first compound 0.3162 µM) it was 0.884; with Pazopanib + Alpelisib (first compound 1 µM) it was 0.736.
As to PC-3 [JPC-3], the relative viability with Pazopanib + Lapatinib (first compound 0.01 µM) turned out to be 0.367; with Pazopanib + Lapatinib (first compound 0.03162 µM), 0.463; in the experiment with Pazopanib + Lapatinib (first compound 0.1 µM), 0.493; with Pazopanib + Lapatinib (first compound 0.3162 µM), 0.468; with Pazopanib + Lapatinib (first compound 1 µM), 0.451; in the experiment with Ponatinib + Decitabine (first compound 0.006325 µM) it was 0.871. Moreover, the relative viability turned out to be 0.849 with Ponatinib + Decitabine (first compound 0.06325 µM); 0.838 with Ponatinib + Decitabine (first compound 0.2 µM); 1 in the experiment with Ponatinib + Alpelisib (first compound 0.002 µM); 1.09 with Ponatinib + Alpelisib (first compound 0.006325 µM); 1.02 in the experiment with Ponatinib + Alpelisib (first compound 0.06325 µM); 1.09 with Ponatinib + Alpelisib (first compound 0.2 µM). Also, the relative viability came out at 0.965 with Pazopanib + Alpelisib (first compound 0.01 µM); 1.04 in the experiment with Pazopanib + Alpelisib (first compound 0.03162 µM); 1.19 with Pazopanib + Alpelisib (first compound 0.1 µM); 0.991 in the experiment with Pazopanib + Alpelisib (first compound 0.3162 µM); 0.956 in the experiment with Pazopanib + Alpelisib (first compound 1 µM).
For the cell line PC-14, the relative viability with Pazopanib + Lapatinib (first compound 0.01 µM) was found to be 0.305; with Pazopanib + Lapatinib (first compound 0.03162 µM) it was 0.295; with Pazopanib + Lapatinib (first compound 0.1 µM), 0.304; with Pazopanib + Lapatinib (first compound 0.3162 µM), 0.379; with Pazopanib + Lapatinib (first compound 1 µM), 0.45; with Ponatinib + Decitabine (first compound 0.002 µM), 0.214. Moreover, the relative viability worked out at 0.222 in the experiment with Ponatinib + Decitabine (first compound 0.006325 µM); 0.232 in the experiment with Ponatinib + Decitabine (first compound 0.06325 µM); 0.214 with Ponatinib + Decitabine (first compound 0.2 µM); 0.856 in the experiment with Ponatinib + Alpelisib (first compound 0.002 µM); 0.906 in the experiment with Ponatinib + Alpelisib (first compound 0.006325 µM); 1.05 with Ponatinib + Alpelisib (first compound 0.06325 µM). Also, the relative viability with Ponatinib + Alpelisib (first compound 0.2 µM) was found to be 0.879; in the experiment with Pazopanib + Alpelisib (first compound 0.01 µM) it was 0.883; with Pazopanib + Alpelisib (first compound 0.03162 µM), 0.996; in the experiment with Pazopanib + Alpelisib (first compound 0.1 µM), 0.959; in the experiment with Pazopanib + Alpelisib (first compound 0.3162 µM) it was 0.934; with Pazopanib + Alpelisib (first compound 1 µM), 0.935.
Take RERF-LC-KJ: the relative viability with Pazopanib + Lapatinib (first compound 0.01 µM) turned out to be 0.761; with Pazopanib + Lapatinib (first compound 0.03162 µM) it was 0.758; with Pazopanib + Lapatinib (first compound 0.1 µM), 0.815; with Pazopanib + Lapatinib (first compound 0.3162 µM) it was 0.734; in the experiment with Pazopanib + Lapatinib (first compound 1 µM), 0.799; with Ponatinib + Decitabine (first compound 0.002 µM), 0.646. Also, the relative viability stood at 0.724 in the experiment with Ponatinib + Decitabine (first compound 0.006325 µM); 0.835 with Ponatinib + Decitabine (first compound 0.06325 µM); 0.665 in the experiment with Ponatinib + Decitabine (first compound 0.2 µM); 0.904 with Ponatinib + Alpelisib (first compound 0.002 µM); 0.739 in the experiment with Ponatinib + Alpelisib (first compound 0.006325 µM); 1.02 with Ponatinib + Alpelisib (first compound 0.06325 µM). Also, the relative viability in the experiment with Ponatinib + Alpelisib (first compound 0.2 µM) came to 0.889; in the experiment with Pazopanib + Alpelisib (first compound 0.01 µM), 0.808; with Pazopanib + Alpelisib (first compound 0.03162 µM), 0.928; in the experiment with Pazopanib + Alpelisib (first compound 0.1 µM), 0.906; in the experiment with Pazopanib + Alpelisib (first compound 0.3162 µM), 0.806; in the experiment with Pazopanib + Alpelisib (first compound 1 µM), 0.935.
For the cell line SK-LU-1, the relative viability with Pazopanib + Lapatinib (first compound 0.01 µM) was found to be 0.903; with Pazopanib + Lapatinib (first compound 0.03162 µM), 0.942; in the experiment with Pazopanib + Lapatinib (first compound 0.1 µM), 1.18; with Pazopanib + Lapatinib (first compound 0.3162 µM) it was 0.976; with Pazopanib + Lapatinib (first compound 1 µM), 0.871; with Ponatinib + Decitabine (first compound 0.002 µM), 0.562. The relative viability was 0.569 in the experiment with Ponatinib + Decitabine (first compound 0.006325 µM); 0.639 with Ponatinib + Decitabine (first compound 0.06325 µM); 0.555 with Ponatinib + Decitabine (first compound 0.2 µM); 0.945 with Ponatinib + Alpelisib (first compound 0.002 µM); 1.14 in the experiment with Ponatinib + Alpelisib (first compound 0.006325 µM); 0.952 in the experiment with Ponatinib + Alpelisib (first compound 0.06325 µM). Besides, the relative viability with Ponatinib + Alpelisib (first compound 0.2 µM) is 0.646; with Pazopanib + Alpelisib (first compound 0.01 µM) it was 0.977; with Pazopanib + Alpelisib (first compound 0.03162 µM) it was 1.24; with Pazopanib + Alpelisib (first compound 0.1 µM), 1.1; with Pazopanib + Alpelisib (first compound 0.3162 µM) it was 1.05; in the experiment with Pazopanib + Alpelisib (first compound 1 µM) it was 1.04.
For the cell line SK-MES-1, the relative viability with Pazopanib + Lapatinib (first compound 0.01 µM) was found to be 0.43; in the experiment with Pazopanib + Lapatinib (first compound 0.03162 µM) it was 0.472; with Pazopanib + Lapatinib (first compound 0.1 µM) it was 0.508; with Pazopanib + Lapatinib (first compound 0.3162 µM), 0.491; with Pazopanib + Lapatinib (first compound 1 µM), 0.58; in the experiment with Ponatinib + Decitabine (first compound 0.002 µM), 0.392. For the same cell line, the relative viability with Ponatinib + Decitabine (first compound 0.006325 µM) was determined as 0.334; in the experiment with Ponatinib + Decitabine (first compound 0.06325 µM) it was 0.419; in the experiment with Ponatinib + Decitabine (first compound 0.2 µM) it was 0.372; with Ponatinib + Alpelisib (first compound 0.002 µM) it was 0.981; with Ponatinib + Alpelisib (first compound 0.006325 µM) it was 0.949; in the experiment with Ponatinib + Alpelisib (first compound 0.06325 µM), 1.32. The relative viability with Ponatinib + Alpelisib (first compound 0.2 µM) came to 1.05; with Pazopanib + Alpelisib (first compound 0.01 µM) it was 0.816; with Pazopanib + Alpelisib (first compound 0.03162 µM) it was 0.872; with Pazopanib + Alpelisib (first compound 0.1 µM) it was 1.02; with Pazopanib + Alpelisib (first compound 0.3162 µM), 0.977; with Pazopanib + Alpelisib (first compound 1 µM), 0.836.
For the cell line SW 1573, the relative viability in the experiment with Pazopanib + Lapatinib (first compound 0.01 µM) amounted to 0.996; with Pazopanib + Lapatinib (first compound 0.03162 µM), 1.1; with Pazopanib + Lapatinib (first compound 0.1 µM), 1.14; in the experiment with Pazopanib + Lapatinib (first compound 0.3162 µM), 1.27; with Pazopanib + Lapatinib (first compound 1 µM) it was 1.41; in the experiment with Ponatinib + Decitabine (first compound 0.002 µM), 0.463. For the same cell line, the relative viability was found to be 0.458 in the experiment with Ponatinib + Decitabine (first compound 0.006325 µM); 0.695 in the experiment with Ponatinib + Decitabine (first compound 0.06325 µM); 0.46 with Ponatinib + Decitabine (first compound 0.2 µM); 0.788 in the experiment with Ponatinib + Alpelisib (first compound 0.002 µM); 0.716 with Ponatinib + Alpelisib (first compound 0.006325 µM); 0.857 with Ponatinib + Alpelisib (first compound 0.06325 µM). For the same cell line, the relative viability came out at 0.693 in the experiment with Ponatinib + Alpelisib (first compound 0.2 µM); 0.69 with Pazopanib + Alpelisib (first compound 0.01 µM); 0.707 in the experiment with Pazopanib + Alpelisib (first compound 0.03162 µM); 0.683 in the experiment with Pazopanib + Alpelisib (first compound 0.1 µM); 0.808 with Pazopanib + Alpelisib (first compound 0.3162 µM); 0.81 with Pazopanib + Alpelisib (first compound 1 µM).
